Laboratory results taken from US20250066370A1, “BICYCLIC TRIAZINE DERIVATIVES FOR THE TREATMENT OF CANCER” (DEUTSCHES KREBSFORSCHUNGSZENTRUM, priority 2022, published 2025).

How the values were obtained:
[1] = test system: CYCLIN K; test: CYCLIN K nuclear protein level: immunofluorescence/high content analysis in CAL-120 cells; format: cell-based, human; settings: 24 h, nuclear CCNK staining intensity, median, read-out: CYCLIN K degradation IF, DC50 - [mol/l] (median)
Experimental: CAL-120 human breast cancer cells (DSMZ ACC 459) are seeded in 1536-well microtiter plates (800 cells per well) containing 50 nanoL of compounds in Dose-Response. Control wells received DMSO or Example 4. Plates are then incubated for 24 h at 37° C. in an humidified incubator and fixed with 4% PFA for 10 min. Then immunofluorescence (IF) against CYCLIN K (ThermoFisher Scientific CCNK Antibody #PA5-85020, rabbit, 1:200 dilution) is performed using standard IF protocols. Cells are then stained with Hoechst 33342 (Life Technologies, H-1399, 0.1 microg/ml) and imaged on an automated confocal microscopy system (e.g. Perkin Elmer Opera Phenix). Nuclear and cytoplasmic intensity as well as the nuclear/cytoplasmic intensity ratio is determined by automated image analysis using custom generated scripts (MetaXpress). Data is then transferred to Genedata Screener software, normalized to DMSO and control and DC50 values (degrading concentration to achieve 50% reduction of nuclear CCNK staining intensity relative to controls) are reported.

[2] = molecular target: CDK2/CyclinE (Homo sapiens (Human), UniProt P24941); test: CDK2/CycE kinase assay (TR-FRET); format: biochemical; settings: 2 mM ATP (high ATP); median; read-out: CDK2/CyclinE, 2 mM ATP (high ATP), IC50 - [mol/l] (median)
Source text: CDK2/CycE-inhibitory activity of compounds of the present invention was quantified employing the CDK2/CycE TR-FRET assay as described in the following paragraphs.
Recombinant fusion proteins of GST and human CDK2 and of GST and human CycE, expressed in insect cells (Sf9) and purified by Glutathion-Sepharose affinity chromatography, were purchased from ProQinase GmbH (Freiburg, Germany). As substrate for the kinase reaction biotinylated peptide biotin-Ttds-YISPLKSPYKISEG (C-terminus in amid form) was used which can be purchased e.g. form the company JERINI peptide technologies (Berlin, Germany).
For the assay 50 nanoL of a 100 fold concentrated solution of the test compound in DMSO was pipetted into a black low volume 384 well microtiter plate or a black 1536 well microtiter plate (both Greiner Bio-One, Frickenhausen, Germany), 2 microL of a solution of CDK2/CycE in aqueous assay buffer [50 millimol/L Tris/HCl PH 8.0, 10 millimol/L MgCl2, 1.0 millimol/L dithiothreitol, 0.1 millimol/L sodium ortho-vanadate, 0.01% (v/v) Nonidet-P40 (Sigma)] were added and the mixture was incubated for 15 min at 22° C. to allow pre-binding of the test compounds to the enzyme before the start of the kinase reaction. Then the kinase reaction was started by the addition of 3 microL of a solution of adenosine-tri-phosphate (ATP, 3.33 millimol/L=>final conc. in the 5 microL assay volume is 2 millimol/L) and substrate (1.25 micromol/L=>final conc. in the 5 microL assay volume is 0.75 micromol/L) in assay buffer and the resulting mixture was incubated for a reaction time of 25 min at 22° C. The concentration of CDK2/CycE was adjusted depending of the activity of the enzyme lot and was chosen appropriate to have the assay in the linear range, typical concentrations were in the range of 10 ng/ml. The reaction was stopped by the addition of 3 microL of a solution of TR-FRET detection reagents (0.333 micromol/L streptavidine-XL665 [Cisbio Bioassays, Codolet, France] and 1.67 nanomol/L anti-RB (pSer807/pSer811)-antibody from BD Pharmingen [#558389] and 2 nanomol/L LANCE EU-W1024 labeled anti-mouse IgG antibody [Perkin-Elmer, product no. AD0077, as an alternative a Terbium-cryptate-labeled anti-mouse IgG antibody from Cisbio Bioassays can be used]) in an aqueous EDTA-solution (167 millimol/L EDTA, 0.2% (w/v) bovine serum albumin in 100 millimol/L HEPES pH 7.5).
The resulting mixture was incubated 1 h at 22° C. to allow the formation of complex between the phosphorylated biotinylated peptide and the detection reagents. Subsequently the amount of phosphorylated substrate was evaluated by measurement of the resonance energy transfer from the Eu-chelate to the streptavidine-XL. Therefore, the fluorescence emissions at 620 nm and 665 nm after excitation at 350 nm was measured in a TR-FRET reader, e.g. a Pherastar (BMG Labtechnologies, Offenburg, Germany) or a Viewlux (Perkin-Elmer). The ratio of the emissions at 665 nm and at […] was taken as the measure for the amount of phosphorylated substrate. The data were normalised (enzyme reaction without inhibitor=0% inhibition, all other assay components but no enzyme=100% inhibition).

[3] = test system: MDA-MB-231-CDK12d-res; test: Proliferation assay CDK12 degrader resistant MDA-MB-231; format: cell-based, human; settings: for IC50: Homo sapiens, 96 h, CDK12 degrader resistant MDA-MB-231 cells, 4 days, median, read-out: Prolif-MDA MB-231-CDK12d-res, IC50 - [mol/] (median); for Ratio (Prolif-MDA MB-231-CDK12d-res IC50 / Prolif-MDA MB-231 IC50): resistant versus parental MDA-MB-231 cells
Source text: CDK12-degrader resistant cells were generated by propagation of CAL-120 human breast adenocarcinoma cells (DSMZ ACC-459) and MDA-MB-231 human breast cancer cells (ATCC HTB-26) in presence of increasing concentrations of the CDK12 degrader compound example 4 from WO 2021/116178. Initial concentrations of example 4 were 2.0E-08 M for CAL-120 cells and 4.6E-08 M for MDA-MB-231 cells, corresponding to ca. 2-fold the IC50 of inhibition of the cells in an proliferation assay. After the treated cells recovered and proliferated again the concentration of compound example 4 was increased to 3-fold IC50.
To determine the inhibitory effect of test compounds on proliferation of CAL-120-CDK12d-res, MDA-MB-231-CDK12d-res the cells were plated at a density of 4,000 cells/well in a 96-well multitier plate in 200 microL of their respective growth medium supplemented 10% fetal calf serum. After 24 hours, the cells of one plate (zero-point plate) were stained with crystal violet (see below), while the medium of the other plates was supplemented with the test substances in various concentrations (0 micromol/L, as well as in the range of 0.01-10 micromol/L; the final concentration of the solvent dimethyl sulfoxide was adjusted to 0.1%) using a Tecan HP D300 Digital Dispenser. The cells were incubated for 4 days in the presence of test substances. Cell proliferation was determined by staining the cells with crystal violet: the cells were fixed by adding 20 microL/measuring point of an 11% glutaric aldehyde solution for 15 minutes at room temperature. After three washing cycles of the fixed cells with water, the plates were dried at room temperature. The cells were stained by adding 100 microL/measuring point of a 0.1% crystal violet solution (pH 3.0). After three washing cycles of the stained cells with water, the plates were dried at room temperature. The dye was dissolved by adding 100 microL/measuring point of a 10% acetic acid solution. The extinction was determined by photometry at a wavelength of 595 nm. The change of cell number, in percent, was calculated by normalization of the measured values to the extinction values of the zero-point plate (=0%) and the extinction of the untreated (0 μM) cells (=100%). The IC50 values (inhibitory concentration at 50% of maximal effect) were determined by means of a 4 parameter fit.

Row | DC50 [1] [µM] | IC50 [2] [µM] | IC50 [3] [µM] | SMILES | Ratio (Prolif-MDA MB-231-CDK12d-res IC50 / Prolif-MDA MB-231 IC50) [3]
1 | > 1 | > 20 | 0.178 | FC(F)(F)Oc1ccc(-c2cnc(CNc3nc(N4CCOCC4)nn4c(C(F)(F)F)cnc34)[nH]2)cc1 [Example 8, 2-(morpholin-4-yl)-N-({5-[4-(trifluoromethoxy)phenyl]-1H-imidazol-2-yl}methyl)-7-(trifluoromethyl)imidazo[2,1-f][1,2,4]triazin-4-amine] | 1.6
2 | > 1 | > 5.71 | 0.155 | FC(F)(F)c1ccc(-c2nnc(CNc3nc(N4CCOCC4)nn4c(C(F)(F)F)cnc34)[nH]2)cn1 [Example 20, 2-(morpholin-4-yl)-7-(trifluoromethyl)-N-({5-[6-(trifluoromethyl)pyridin-3-yl]-4H-1,2,4-triazol-3-yl}methyl)imidazo[2,1-f][1,2,4]triazin-4-amine] | 2.9

Second part, the compound before the results:

Row | SMILES | DC50 [1] [µM] | IC50 [2] [µM] | IC50 [3] [µM] | Ratio (Prolif-MDA MB-231-CDK12d-res IC50 / Prolif-MDA MB-231 IC50) [3]
3 | FC(F)(F)c1ccc(-c2nnc(CNc3nc(N4CCOCC4)nc4c(C(F)(F)F)cnn34)[nH]2)cc1 [Example 6, 2-(morpholin-4-yl)-8-(trifluoromethyl)-N-({5-[4-(trifluoromethyl)phenyl]-4H-1,2,4-triazol-3-yl}methyl)pyrazolo[1,5-a][1,3,5]triazin-4-amine] | > 1 | > 20 |  | 
4 | FC(F)(F)Oc1ccc(-c2cnc(CNc3nc(N4CCOCC4)nc4c(C(F)(F)F)cnn34)[nH]2)cc1 [Example 10, 2-(morpholin-4-yl)-N-({5-[4-(trifluoromethoxy)phenyl]-1H-imidazol-2-yl}methyl)-8-(trifluoromethyl)pyrazolo[1,5-a][1,3,5]triazin-4-amine] | 0.228 | > 20 | 0.156 | 1.3
5 | FC(F)(F)Oc1ccc(-c2nnc(CNc3nc(N4CCOCC4)nc4c(C(F)(F)F)cnn34)[nH]2)cc1 [Example 5, 2-(morpholin-4-yl)-N-({5-[4-(trifluoromethoxy)phenyl]-4H-1,2,4-triazol-3-yl}methyl)-8-(trifluoromethyl)pyrazolo[1,5-a][1,3,5]triazin-4-amine] | > 1 | > 20 |  | 
6 | COc1ccc(-c2nnc(CNc3nc(N4CCOCC4)nc4c(C(F)(F)F)cnn34)[nH]2)cn1 [Example 15, N-{[5-(6-methoxypyridin-3-yl)-4H-1,2,4-triazol-3-yl]methyl}-2-(morpholin-4-yl)-8-(trifluoromethyl)pyrazolo[1,5-a][1,3,5]triazin-4-amine] | > 1 | 3.12 |  | 
7 | Cc1ccc(-c2nnc(CNc3nc(N4CCOCC4)nn4c(C(F)(F)F)cnc34)[nH]2)cn1 [Example 23, N-{[5-(6-methylpyridin-3-yl)-4H-1,2,4-triazol-3-yl]methyl}-2-(morpholin-4-yl)-7-(trifluoromethyl)imidazo[2,1-f][1,2,4]triazin-4-amine] | 0.124 | 2.86 |  | 
